The source of these data is article doi:10.1101/2020.03.08.982454v1 (biorxiv, 2020).

Assay [1] has as its target T1, KMP-11 (Leishmania donovani, UniProt Q36736).
T1 sequence (Q36736 1-92): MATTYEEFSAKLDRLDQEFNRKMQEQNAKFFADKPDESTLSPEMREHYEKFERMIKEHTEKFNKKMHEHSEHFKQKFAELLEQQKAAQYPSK
The assay can be described thus: DiI C-18 fluorescence quenching, Hill fit. The assay is classed as binding.

For assay [2], the target named is KMP-11 (Leishmania donovani, UniProt Q36736, Y89W). The assay can be described thus: biochemical.
Assay [3] addresses KMP-11 (Leishmania donovani, UniProt Q36736, Y48W). The assay can be described thus: biochemical.
Assay [4] concerns the target KMP-11 (Leishmania donovani, UniProt Q36736, F62W). Nature of the assay: biochemical.
Assay [5] has as its target KMP-11 (Leishmania donovani, UniProt Q36736, Y5W). Nature of the assay: biochemical.

Consider `CCCCCCCCCCCCCCCC(=O)OC[C@H](COP(=O)([O-])OCC[N+](C)(C)C)OC(=O)CCCCCCCCCCCCCCC` [DPPC], for which the Kd (commonly the free concentration of one partner at which half of the binding sites on the other are occupied at equilibrium, for simple one-to-one binding) is 0.286 µM at KMP-11 [1]; 0.161 µM at KMP-11 [2]; 0.118 µM at KMP-11 [3]; 3.8 µM on KMP-11 [4]; 0.0194 µM on KMP-11 [5].
